Test results as given in patent US20230227546A1, “TYPE 2 CYTOKINES AS PREDICTORS OF DISEASE SEVERITY AND/OR AS T[…] FOR COVID-19” (priority 2020, published 2023).

Test system: COVID-19
Experiment: Retrospective analysis of international COVID-19 cohort (TriNetX COVID-19 Research Network), Dupilumab
Format: in vivo, human
Conditions: for Risk Difference (95% CI), Deceased / Risk Difference (95% CI), Ventilated: with vs without Dupilumab
[1] = Diagnoses Matching, 65 patients with Dupilumab
[2] = Dupilumab prescribed prior to COVID-19 diagnosis
[3] = Full Cohort, 81 patients with Dupilumab

Dupilumab: anti-human IL4Rα monoclonal antibody that blocks IL-13 and IL-4 signaling; sold as DUPIXENT
Deceased (number of patients) With Dupilumab (1:1 Propensity Score Matching, 81 patients): 0 | Risk Difference (95% CI), Deceased (1:1 Propensity Score Matching): 12.3% (5.2-19.5) | Serum C-Reactive Protein (CRP) (COVID-19 patients With Dupilumab): 25.3 mg/L | Deceased (number of patients) With Dupilumab [1]: 0 | Ventilated (number of patients) With Dupilumab [1]: 0 | Risk Difference (95% CI), Deceased (Diagnoses Matching): 1.83% (1.69-1.97) | Risk Difference (95% CI), Ventilated (Diagnoses Matching): 0.67% (0.58-0.75) | risk of death in COVID-19 [2]: lower risk | risk of ventilation in COVID-19 [2]: lower risk | CRP levels (Dupilumab-prescribed patients with COVID-19): reduced | Deceased (number of patients) With Dupilumab [3]: 0 | Ventilated (number of patients) With Dupilumab [3]: 0 | Risk Difference (95% CI), Deceased (Full Cohort): 1.98% (1.94-2.03) | Risk Difference (95% CI), Ventilated (Full Cohort): 0.37% (0.35-0.39) | CRP Sub-cohort Difference (With vs Without Dupilumab): 12.
